Assay results reported in US20040039199A1, “Oxabispidine compound useful in the treatment of cardiac arrhythmias” (priority 2000, published 2004).

Tested on: Anaesthetised Guinea Pigs
Test: Test A: Primary electrophysiological effects in anaesthetised guinea pigs
Format: in vivo, guinea pig
Conditions: index of class III electrophysiological potency; MAP duration at 75 percent repolarization during pacing; intravenous infusion, cumulative doses; derived from mean dose-response curve
Description: Primary Electrophysiological Effects In Anaesthetised Guinea Pigs
Guinea pigs weighing between 660 and 1100 g were used. The animals were housed for at least one week before the experiment and had free access to food and tap water during that period.
Anaesthesia was induced by an intraperitoneal injection of pentobarbital (40 to 50 mg/kg) and catheters were introduced into one carotid artery (for blood pressure recording and blood sampling) and into one jugular vein (for drug infusions). Needle electrodes were placed on the limbs for recording of ECGs (lead II). A thermistor was placed in the rectum and the animal was placed on a heating pad, set to a rectal temperature of between 37.5 and 38.5° C. […]
The left ventricular epicardium was exposed by a left-sided thoracotomy, and a custom-designed suction electrode for recording of the monophasic action potential (MAP) was applied to the left ventricular free wall. The electrode was kept in position as long as an acceptable signal could be recorded, otherwise it was moved to a new position. […]
The blood pressure, the MAP signal and the lead II ECG were recorded on a Mingograph ink-jet recorder (Siemens-Elema, Sweden). […] The signals were processed using a custom-made program developed for acquisition and analysis of physiological signals measured in experimental animals (see Axenborg and Hirsch, Comput. Methods Programs Biomed. 41, 55 (1993)). […]

CC(C)(C)C(=O)CN1CC2CN(CCCNc3ccc(C#N)cc3)CC(C1)O2.O=S(=O)(O)c1ccccc1 [Compound A, 4-({3-[7-(3,3-dimethyl-2-oxobutyl)-9-oxa-3,7-diazabicyclo[3.3.1]non-3-yl]propyl}amino)benzonitrile, benzenesulfonic acid salt]
D10 (cumulative dose prolonging the MAP duration by 10% from the baseline): 6.7
